From ChEMBL document CHEMBL1201862, “PubChem BioAssay data set” (2004)
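Protocol summary: plate cells (96-well), add compound at 5 concentrations, incubate 48 h, interpolate endpoints linearly. Abbreviation: GI50, concentration required for 50% inhibition of growth.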 Active and inactive are the calls of the source. Rule as the data show it: active = GI50 up to about 1.1 µM and inactive = higher.

Columns and labels:
Experiment in all cases: NCI anticancer screen, dose series, 48 h
NCI/ADR-RES = system: NCI/ADR-RES
A549 = system: A549
UACC-257 = system: UACC-257
MCF7 = system: MCF7
SN12C = system: SN12C
SW-620 = system: SW-620
HCT-15 = system: HCT-15
HOP-92 = system: HOP-92
HOP-62 = system: HOP-62
MDA-MB-231 = system: MDA-MB-231
SK-MEL-2 = system: SK-MEL-2
SNB-19 = system: SNB-19
KM12 = system: KM12
UACC-62 = system: UACC-62
PC-3 = system: PC-3
OVCAR-5 = system: OVCAR-5
K562 = system: K562
NCI-H23 = system: NCI-H23
SF-268 = system: SF-268
OVCAR-3 = system: OVCAR-3
NCI-H522 = system: NCI-H522
SR = system: SR
TK-10 = system: TK-10
U-251 = system: U-251
BT-549 = system: BT-549
EKVX = system: EKVX
SF-539 = system: SF-539
MDA-N = system: MDA-N
NCI-H460 = system: NCI-H460
HCT-116 = system: HCT-116
LOX IMVI = system: LOX IMVI
IGROV-1 = system: IGROV-1
A498 = system: A498
MDA-MB-435 = system: MDA-MB-435
OVCAR-4 = system: OVCAR-4
M14 = system: M14
SF-295 = system: SF-295
RXF 393 = system: RXF 393
UO-31 = system: UO-31
SK-MEL-5 = system: SK-MEL-5
CAKI-1 = system: CAKI-1
OVCAR-8 = system: OVCAR-8
Hs-578T = system: Hs-578T
DU-145 = system: DU-145
HL-60 = system: HL-60
NCI-H226 = system: NCI-H226
SK-OV-3 = system: SK-OV-3
COLO 205 = system: COLO 205
CCRF-CEM = system: CCRF-CEM
SK-MEL-28 = system: SK-MEL-28
HCC 2998 = system: HCC 2998
MOLT-4 = system: MOLT-4
T47D = system: T47D
ACHN = system: ACHN
786-0 = system: 786-0
HT-29 = system: HT-29
SNB-75 = system: SNB-75
RPMI-8226 = system: RPMI-8226
Malme-3M = system: Malme-3M

**Q.** With `CCN1C(NCCO)=NS(=O)(=O)c2ccccc21` as the compound, how does the GI50 (NCI/ADR-RES) read?
**A.** > 100 µM (inactive)

**Q.** What about the GI50 (A549) of the same compound?
**A.** > 100 µM (inactive)

**Q.** And the GI50 (UACC-257)?
**A.** > 100 µM (inactive)

**Q.** And the GI50 (MCF7)?
**A.** > 100 µM (inactive)

**Q.** What about the GI50 (SN12C) of the same compound?
**A.** > 100 µM (inactive)

**Q.** What about the GI50 (SW-620) of the same compound?
**A.** > 100 µM (inactive)

**Q.** What about the GI50 (HCT-15) of the same compound?
**A.** > 100 µM

**Q.** What about the GI50 (HOP-92) of the same compound?
**A.** > 100 µM (inactive)

**Q.** What about the GI50 (HOP-62) of the same compound?
**A.** > 100 µM (inactive)

**Q.** And the GI50 (MDA-MB-231)?
**A.** > 100 µM (inactive)

**Q.** And the GI50 (SK-MEL-2)?
**A.** > 100 µM (inactive)

**Q.** And the GI50 (SNB-19)?
**A.** > 100 µM (inactive)

**Q.** What about the GI50 (KM12) of the same compound?
**A.** > 100 µM (inactive)

**Q.** And the GI50 (UACC-62)?
**A.** > 100 µM (inactive)

**Q.** And the GI50 (PC-3)?
**A.** > 100 µM (inactive)

**Q.** What about the GI50 (OVCAR-5) of the same compound?
**A.** > 100 µM (inactive)

**Q.** What about the GI50 (K562) of the same compound?
**A.** > 100 µM (inactive)

**Q.** What about the GI50 (NCI-H23) of the same compound?
**A.** > 100 µM (inactive)

**Q.** And the GI50 (SF-268)?
**A.** > 100 µM (inactive)

**Q.** What about the GI50 (OVCAR-3) of the same compound?
**A.** > 100 µM (inactive)

**Q.** What about the GI50 (NCI-H522) of the same compound?
**A.** > 100 µM (inactive)

**Q.** What about the GI50 (SR) of the same compound?
**A.** > 100 µM (inactive)

**Q.** What about the GI50 (TK-10) of the same compound?
**A.** > 100 µM (inactive)

**Q.** And the GI50 (U-251)?
**A.** > 100 µM (inactive)

**Q.** What about the GI50 (BT-549) of the same compound?
**A.** > 100 µM (inactive)

**Q.** What about the GI50 (EKVX) of the same compound?
**A.** > 100 µM (inactive)

**Q.** And the GI50 (SF-539)?
**A.** > 100 µM (inactive)

**Q.** What about the GI50 (MDA-N) of the same compound?
**A.** > 100 µM (inactive)

**Q.** And the GI50 (NCI-H460)?
**A.** > 100 µM (inactive)

**Q.** What about the GI50 (HCT-116) of the same compound?
**A.** > 100 µM (inactive)

**Q.** And the GI50 (LOX IMVI)?
**A.** > 100 µM (inactive)

**Q.** And the GI50 (IGROV-1)?
**A.** > 100 µM (inactive)

**Q.** What about the GI50 (A498) of the same compound?
**A.** > 100 µM (inactive)

**Q.** And the GI50 (MDA-MB-435)?
**A.** > 100 µM (inactive)

**Q.** What about the GI50 (OVCAR-4) of the same compound?
**A.** > 100 µM (inactive)

**Q.** And the GI50 (M14)?
**A.** > 100 µM (inactive)

**Q.** And the GI50 (SF-295)?
**A.** > 100 µM (inactive)

**Q.** What about the GI50 (RXF 393) of the same compound?
**A.** > 100 µM (inactive)

**Q.** And the GI50 (UO-31)?
**A.** > 100 µM (inactive)

**Q.** What about the GI50 (SK-MEL-5) of the same compound?
**A.** > 100 µM (inactive)

**Q.** What about the GI50 (CAKI-1) of the same compound?
**A.** > 100 µM (inactive)

**Q.** What about the GI50 (OVCAR-8) of the same compound?
**A.** > 100 µM (inactive)

**Q.** And the GI50 (Hs-578T)?
**A.** > 100 µM (inactive)

**Q.** What about the GI50 (DU-145) of the same compound?
**A.** > 100 µM (inactive)

**Q.** What about the GI50 (HL-60) of the same compound?
**A.** > 100 µM (inactive)

**Q.** What about the GI50 (NCI-H226) of the same compound?
**A.** > 100 µM (inactive)

**Q.** What about the GI50 (SK-OV-3) of the same compound?
**A.** > 100 µM (inactive)

**Q.** What about the GI50 (COLO 205) of the same compound?
**A.** > 100 µM (inactive)

**Q.** And the GI50 (CCRF-CEM)?
**A.** > 100 µM (inactive)

**Q.** And the GI50 (SK-MEL-28)?
**A.** > 100 µM (inactive)

**Q.** And the GI50 (HCC 2998)?
**A.** > 100 µM (inactive)

**Q.** And the GI50 (MOLT-4)?
**A.** > 100 µM (inactive)

**Q.** And the GI50 (T47D)?
**A.** > 100 µM (inactive)

**Q.** What about the GI50 (ACHN) of the same compound?
**A.** > 100 µM (inactive)

**Q.** What about the GI50 (786-0) of the same compound?
**A.** > 100 µM (inactive)

**Q.** What about the GI50 (HT-29) of the same compound?
**A.** > 100 µM (inactive)

**Q.** What does the source list for `COc1ccc(C(C)NNC(=O)c2ccncc2)cc1F` (centres undefined)?
**A.** GI50 (NCI/ADR-RES): > 100 µM (inactive); GI50 (A549): > 100 µM (inactive); GI50 (UACC-257): > 100 µM (inactive); GI50 (MCF7): > 100 µM (inactive); GI50 (SN12C): > 100 µM (inactive); GI50 (SW-620): > 100 µM (inactive); GI50 (HCT-15): > 100 µM; GI50 (HOP-92): > 100 µM (inactive); GI50 (HOP-62): > 100 µM (inactive); GI50 (MDA-MB-231): > 100 µM (inactive); GI50 (SK-MEL-2): > 100 µM (inactive); GI50 (SNB-19): > 100 µM (inactive); GI50 (KM12): > 100 µM (inactive); GI50 (UACC-62): > 100 µM (inactive); GI50 (PC-3): > 100 µM (inactive); GI50 (OVCAR-5): > 100 µM (inactive); GI50 (SNB-75): > 100 µM (inactive); GI50 (K562): > 100 µM (inactive); GI50 (NCI-H23): > 100 µM (inactive); GI50 (SF-268): > 100 µM (inactive); GI50 (OVCAR-3): > 100 µM (inactive); GI50 (SR): > 100 µM (inactive); GI50 (TK-10): > 100 µM (inactive); GI50 (U-251): > 100 µM (inactive); GI50 (BT-549): > 100 µM (inactive); GI50 (EKVX): > 100 µM (inactive); GI50 (SF-539): > 100 µM (inactive); GI50 (MDA-N): > 100 µM (inactive); GI50 (NCI-H460): > 100 µM (inactive); GI50 (HCT-116): > 100 µM (inactive); GI50 (LOX IMVI): > 100 µM (inactive); GI50 (IGROV-1): > 100 µM (inactive); GI50 (A498): > 100 µM (inactive); GI50 (MDA-MB-435): > 100 µM (inactive); GI50 (OVCAR-4): > 100 µM (inactive); GI50 (M14): > 100 µM (inactive); GI50 (SF-295): > 100 µM (inactive); GI50 (RXF 393): > 100 µM (inactive); GI50 (UO-31): > 100 µM (inactive); GI50 (SK-MEL-5): > 100 µM (inactive); GI50 (CAKI-1): > 100 µM (inactive); GI50 (OVCAR-8): > 100 µM (inactive); GI50 (Hs-578T): > 100 µM (inactive); GI50 (DU-145): > 100 µM (inactive); GI50 (HL-60): > 100 µM (inactive); GI50 (NCI-H226): > 100 µM (inactive); GI50 (SK-OV-3): > 100 µM (inactive); GI50 (COLO 205): > 100 µM (inactive); GI50 (CCRF-CEM): > 100 µM (inactive); GI50 (SK-MEL-28): > 100 µM (inactive); GI50 (HCC 2998): > 100 µM (inactive); GI50 (MOLT-4): > 100 µM (inactive); GI50 (T47D): > 100 µM (inactive); GI50 (RPMI-8226): > 100 µM (inactive); GI50 (ACHN): > 100 µM (inactive); GI50 (786-0): > 100 µM (inactive); GI50 (Malme-3M): > 100 µM (inactive); GI50 (HT-29): > 100 µM (inactive)
